Our source for the surviving fraction values is the supplement of paper PMC6045584.

± gives the standard deviation of the averaged measurements.

Compound in experiment [1]: CCN(CC)CCCCNc1ncc2cc(-c3cc(OC)cc(OC)c3)c(NC(=O)NC(C)(C)C)nc2n1
Put plainly: surviving fraction relative to DMSO-only wells; higher = less growth inhibition. The settings on record: exposure time: 5 days. Put shortly:
(§1)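 Surviving fraction was calculated by normalising CellTiter-Glo luminescence to the median of DMSO-only wells. Tumour cell lines in log phase were seeded in 384-well plates at 250–500 cells per well, and 24 hours later were exposed continuously for five days to inhibitors at 0.5, 1, 5, 10, 50, 100, 500 and 1000 nM.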

Compound in the next experiment: CC[C@@H](C(=O)[C@@H](C)[C@@H](O)[C@H](C)[C@@H]1O[C@@H]([C@@H](CC)C(=O)O)CC[C@@H]1C)[C@H]1O[C@]2(C=C[C@@H](O)[C@]3(CC[C@@](C)([C@H]4CC[C@](O)(CC)[C@H](C)O4)O3)O2)[C@H](C)C[C@@H]1C [SALINOMYCIN]
The experiment is described as above. The settings on record: exposure time: 5 days. A digest of the protocol: as §1

As to SG43 HEADNECK, the surviving fraction turned out to be 0.9 ± 0.076 in experiment [1] (0.5 nM); 0.971 ± 0.053 in experiment [1] (1 nM); 0.974 ± 0.15 in experiment [1] (5 nM); 0.966 ± 0.095 in experiment [1] (10 nM); 0.85 ± 0.13 in experiment [1] (50 nM); 0.905 ± 0.24 in experiment [1] (100 nM). The surviving fraction in experiment [1] (500 nM) is 0.95 ± 0.12; in experiment [1] (1000 nM) it was 0.811 ± 0.16; with SALINOMYCIN (0.5 nM), 0.921 ± 0.12; with SALINOMYCIN (1 nM), 1.2 ± 0.14; in the experiment with SALINOMYCIN (5 nM), 0.776 ± 0.14; with SALINOMYCIN (10 nM), 1.05 ± 0.13. Also, the surviving fraction turned out to be 0.954 ± 0.14 in the experiment with SALINOMYCIN (50 nM), 1.16 ± 0.13 with SALINOMYCIN (100 nM), 0.459 ± 0.023 with SALINOMYCIN (500 nM) and 0.285 ± 0.11 in the experiment with SALINOMYCIN (1000 nM).
With SIHA CERVIX, the surviving fraction is 0.945 ± 0.075 in experiment [1] (0.5 nM); 0.972 ± 0.043 in experiment [1] (1 nM); 1.07 ± 0.055 in experiment [1] (5 nM); 1.07 ± 0.051 in experiment [1] (10 nM); 0.908 ± 0.063 in experiment [1] (50 nM); 0.905 ± 0.098 in experiment [1] (100 nM). Moreover, the surviving fraction was 0.776 ± 0.027 in experiment [1] (500 nM); 0.818 ± 0.013 in experiment [1] (1000 nM); 0.875 ± 0.013 with SALINOMYCIN (0.5 nM); 0.878 ± 0.011 with SALINOMYCIN (1 nM); 0.935 ± 0.073 in the experiment with SALINOMYCIN (5 nM); 0.967 ± 0.047 with SALINOMYCIN (10 nM). The surviving fraction with SALINOMYCIN (50 nM) amounted to 0.9557 ± 0.0072; with SALINOMYCIN (100 nM), 0.928 ± 0.052; in the experiment with SALINOMYCIN (500 nM) it was 0.513 ± 0.038; with SALINOMYCIN (1000 nM), 0.419 ± 0.014.
Turning to SJSA1 BONE, the surviving fraction is 1.04 ± 0.052 in experiment [1] (0.5 nM); 1.04 ± 0.026 in experiment [1] (1 nM); 1.04 ± 0.026 in experiment [1] (5 nM); 1.09 ± 0.034 in experiment [1] (10 nM); 1.08 ± 0.021 in experiment [1] (50 nM); 1.07 ± 0.038 in experiment [1] (100 nM). Besides, the surviving fraction in experiment [1] (500 nM) stood at 1.023 ± 0.0089; in experiment [1] (1000 nM), 1.04 ± 0.034; in the experiment with SALINOMYCIN (0.5 nM), 1 ± 0.033; in the experiment with SALINOMYCIN (1 nM) it was 0.992 ± 0.011; in the experiment with SALINOMYCIN (5 nM), 1.02 ± 0.041; with SALINOMYCIN (10 nM), 1 ± 0.033. For the same test system, the surviving fraction was 1.02 ± 0.023 with SALINOMYCIN (50 nM), 0.966 ± 0.023 with SALINOMYCIN (100 nM), 0.404 ± 0.041 with SALINOMYCIN (500 nM) and 0.27 ± 0.043 with SALINOMYCIN (1000 nM).
For the test system SKBR3 BREAST, the surviving fraction was found to be 0.9 ± 0.11 in experiment [1] (0.5 nM); 0.967 ± 0.072 in experiment [1] (1 nM); 0.975 ± 0.22 in experiment [1] (5 nM); 0.851 ± 0.057 in experiment [1] (10 nM); 0.979 ± 0.13 in experiment [1] (50 nM); 0.992 ± 0.077 in experiment [1] (100 nM). The surviving fraction amounted to 1 ± 0.05 in experiment [1] (500 nM); 0.848 ± 0.13 in experiment [1] (1000 nM); 1 ± 0.13 in the experiment with SALINOMYCIN (0.5 nM); 1.09 ± 0.2 with SALINOMYCIN (1 nM); 0.927 ± 0.12 with SALINOMYCIN (5 nM); 0.997 ± 0.051 in the experiment with SALINOMYCIN (10 nM). Further, the surviving fraction with SALINOMYCIN (50 nM) was 1.05 ± 0.12; with SALINOMYCIN (100 nM) it was 0.98 ± 0.17; in the experiment with SALINOMYCIN (500 nM), 0.238 ± 0.025; with SALINOMYCIN (1000 nM), 0.109 ± 0.015.
Turning to SNU475 LIVER, the surviving fraction in experiment [1] (0.5 nM) is 0.785 ± 0.028; in experiment [1] (1 nM), 0.964 ± 0.053; in experiment [1] (5 nM), 0.894 ± 0.05; in experiment [1] (10 nM) it was 0.987 ± 0.027; in experiment [1] (50 nM) it was 0.916 ± 0.044; in experiment [1] (100 nM), 0.939 ± 0.019. For the same test system, the surviving fraction in experiment [1] (500 nM) came to 0.906 ± 0.022; in experiment [1] (1000 nM), 0.886 ± 0.029; with SALINOMYCIN (0.5 nM) it was 0.974 ± 0.027; with SALINOMYCIN (1 nM), 0.86 ± 0.032; with SALINOMYCIN (5 nM), 0.952 ± 0.029; in the experiment with SALINOMYCIN (10 nM) it was 0.423 ± 0.0047. The surviving fraction was determined as 1.04 ± 0.036 with SALINOMYCIN (50 nM), 0.871 ± 0.033 in the experiment with SALINOMYCIN (100 nM), 0.46 ± 0.046 with SALINOMYCIN (500 nM) and 0.31 ± 0.018 with SALINOMYCIN (1000 nM).
Consider SUM44 BREAST, for which the surviving fraction in experiment [1] (0.5 nM) is 0.956 ± 0.064; in experiment [1] (1 nM), 0.928 ± 0.04; in experiment [1] (5 nM), 1.03 ± 0.019; in experiment [1] (10 nM) it was 1.04 ± 0.087; in experiment [1] (50 nM) it was 1.04 ± 0.095; in experiment [1] (100 nM), 1.04 ± 0.094. Besides, the surviving fraction in experiment [1] (500 nM) stood at 0.985 ± 0.026; in experiment [1] (1000 nM), 1.03 ± 0.037; in the experiment with SALINOMYCIN (0.5 nM), 0.967 ± 0.033; in the experiment with SALINOMYCIN (1 nM), 0.959 ± 0.021; in the experiment with SALINOMYCIN (5 nM), 0.995 ± 0.042; in the experiment with SALINOMYCIN (10 nM), 0.992 ± 0.017. Besides, the surviving fraction with SALINOMYCIN (50 nM) came to 1.01 ± 0.033; with SALINOMYCIN (100 nM), 1.02 ± 0.028; with SALINOMYCIN (500 nM), 0.852 ± 0.031; with SALINOMYCIN (1000 nM) it was 0.748 ± 0.037.
As for SUM149 BREAST, the surviving fraction in experiment [1] (0.5 nM) stood at 0.881 ± 0.14; in experiment [1] (1 nM), 1.12 ± 0.057; in experiment [1] (5 nM), 0.998 ± 0.037; in experiment [1] (10 nM) it was 1.21 ± 0.049; in experiment [1] (50 nM), 1.03 ± 0.069; in experiment [1] (100 nM) it was 1.1 ± 0.13. Besides, the surviving fraction in experiment [1] (500 nM) was found to be 1.01 ± 0.056; in experiment [1] (1000 nM) it was 1.08 ± 0.14; in the experiment with SALINOMYCIN (0.5 nM) it was 0.981 ± 0.06; with SALINOMYCIN (1 nM) it was 0.972 ± 0.14; with SALINOMYCIN (5 nM) it was 1.02 ± 0.13; with SALINOMYCIN (10 nM), 0.392 ± 0.03. The surviving fraction in the experiment with SALINOMYCIN (50 nM) turned out to be 1.06 ± 0.092; in the experiment with SALINOMYCIN (100 nM) it was 0.836 ± 0.052; with SALINOMYCIN (500 nM) it was 0.424 ± 0.042; in the experiment with SALINOMYCIN (1000 nM) it was 0.356 ± 0.01.
SUM149.B1*.S BREAST: the surviving fraction stood at 0.852 ± 0.049 in experiment [1] (0.5 nM); 1 ± 0.017 in experiment [1] (1 nM); 0.952 ± 0.024 in experiment [1] (5 nM); 1.02 ± 0.021 in experiment [1] (10 nM); 0.933 ± 0.029 in experiment [1] (50 nM); 1.06 ± 0.041 in experiment [1] (100 nM). For the same test system, the surviving fraction in experiment [1] (500 nM) is 1.03 ± 0.011; in experiment [1] (1000 nM) it was 1.08 ± 0.017; with SALINOMYCIN (0.5 nM), 1.02 ± 0.052; with SALINOMYCIN (1 nM), 0.884 ± 0.057; with SALINOMYCIN (5 nM), 0.955 ± 0.016; with SALINOMYCIN (10 nM), 0.609 ± 0.014. The surviving fraction in the experiment with SALINOMYCIN (50 nM) came to 0.982 ± 0.051; with SALINOMYCIN (100 nM) it was 0.768 ± 0.032; in the experiment with SALINOMYCIN (500 nM), 0.3677 ± 0.0023; in the experiment with SALINOMYCIN (1000 nM), 0.294 ± 0.016.
